Our source for the IC50 and melting point values is patent publication US8067442B2, “Heterocyclic antiviral compounds” (Roche Palo Alto LLC, priority 2008, dated 2011).

In data set [1] the target is T1, HCV polymerase (NS5B570n-Con1) (Hepatitis C virus genotype 1b, UniProt Q9WMX2).
T1 construct: a 21 amino acid C-terminal deletion of full-length HCV polymerase; made in house; host or cells: E. coli BL21(DE3) pLysS, plasmid pET17b
Kind of data set: biochemical. Set-up: species or system HCV Con1 strain. As for the experimental part:
The enzymatic activity of HCV polymerase (NS5B570n-Con1) was measured as the incorporation of radiolabeled nucleotide monophosphates into acid insoluble RNA products. Unincorporated radiolabeled substrate was removed by filtration and scintillant was added to the washed and dried filter plate containing radiolabeled RNA product. The amount of RNA product generated by NS5B570n-Con1 at the end of the reaction was directly proportional to the amount of light emitted by the scintillant.
The HCV polymerase used in the enzymatic activity assay is a 21 amino acid C-terminal deletion of full-length HCV polymerase derived from HCV Con1 strain, genotype 1b (GenBank accession number AJ242654) (NS5B570n-Con1). The NS5B570n-Con1 was sub-cloned downstream to the T7 promoter of the plasmid expression construct pET17b and transformed into E. coli strain BL21(DE3) pLysS for protein expression. A single colony was used to start an innoculum for a 10 L culture in LB media supplemented with 100 μg/mL ampicillin at 37° C. Protein expression was induced by the addition of 0.25 mM isopropyl-β-D-thiogalactopyranoside (IPTG) when the optical density of the culture at […] was 0.8. Induction of protein expression was carried out at 30° C. for 16 h after which the cells were harvested by centrifugation. NS5B570n-Con1 was purified to homogeneity using a three-column purification protocol including subsequent column chromatography on Ni-NTA, SP-Sepharose HP and Superdex 75 resins.
Enzymatic reactions in the presence of cIRES RNA template (see section [0300]) contained 20 nM cIRES RNA, 20 nM NS5B570n-Con1 enzyme, 0.5 μCi of tritiated UTP (Perkin Elmer catalog no. TRK-412; specific activity: 30 to 60 Ci/mmol), 1 μM each ATP, CTP, and GTP, 40 mM Tris-HCl pH 8.0, 40 mM NaCl, 4 mM DTT (dithiothreitol), 4 mM MgCl2, 5 μl of compound serial diluted in DMSO, and nuclease-free water to a final reaction volume of 50 μl. Enzymatic reactions in the presence of 20 nM cIRES template, 20 nM NS5B570n-Con1 enzyme, 1 μCi of tritiated UTP (Perkin Elmer catalog no. TRK-412; specific activity: 30 to 60 Ci/mmol), 40 mM Tris-HCl pH 8.0, 40 mM NaCl, 4 mM DTT (dithiothreitol), 4 mM MgCl2, 5 μl of compound serial diluted in DMSO, and nuclease-free water to a final reaction volume of 50 μl. Reaction mixtures were assembled in 96-well filter plates (cat #MADVNOB, Millipore Co.) and incubated for 2 h at 30° C. Reactions were stopped by addition of 10% final (v/v) trichloroacetic acid and incubated for 40 min at 4° C. Reactions were filtered, washed with 8 reaction volumes of 10% (v/v) trichloroacetic acetic acid, 4 reaction volumes of 70% (v/v) ethanol, air dried, and 25 μl of scintillant (Microscint 20, Perkin-Elmer) was added to each reaction well.
Two RNA templates can be used to assay compounds described herein. The cIRES RNA template is 377 nucleotide long and consisting of a partial complementary sequence (36 nucleotides) of the core protein, followed by 341 nucleotide of the complementary sequence of the internal ribosome entry site. The poly A RNA template (GE Amersham catalog number 27-4110) was a homopolymeric RNA pre-annealed to a oligo(rU)16 primer at a molar ratio of 3-to-1 (primer-template). The cIRES template was used in the assay unless otherwise noted.
The amount of light emitted from the scintillant was converted to counts per minute (CPM) on a Topcount® plate reader (Perkin-Elmer, Energy Range: Low, Efficiency Mode Normal, Count Time: 1 min, Background Subtract: none, Cross talk reduction: Off).
Data was analyzed in Excel® (Microsoft®) and ActivityBase® (Idbs®). The reaction in the absence of enzyme was used to determine the background signal, which was subtracted from the enzymatic reactions. […] All data was expressed as a percentage of the positive control. The compound concentration at which the enzyme-catalyzed rate of RNA synthesis was reduced by 50% (IC50) was calculated by fitting

pIC50: −log10 of the molar value. Some results are limits rather than exact numbers.

`CC(C)(C)c1cc(-c2ncc[nH]c2=O)cc2c(C(=O)N3CCCC(CNS(C)(=O)=O)C3)coc12` (stereo not shown) [Compound 102, N-{1-[7-tert-Butyl-5-(3-oxo-3,4-dihydro-pyrazin-2-yl)-benzofuran-3-carbonyl]-piperidin-3-ylmethyl}-methanesulfonamide] showed a melting point of 172 to 174 °C. In data set [1], this molecule showed a pIC50 of 8.10.
The corresponding values for `CC(C)(C)c1cc(-c2ccc[nH]c2=O)cc2c(C(=O)N3CCCC(CNS(C)(=O)=O)C3)csc12` (stereo not shown) [Compound 114, N-{1-[7-tert-Butyl-5-(2-oxo-1,2-dihydro-pyridin-3-yl)-benzo[b]thiophene-3-carbonyl]-piperidin-3-ylmethyl}-methanesulfonamide] are 175 to 177 °C and 8.52.
Molecule `CC(C)(C)c1cc(-c2ccc[nH]c2=O)cc2c(C(=O)N3CCC[C@@H]3CNS(C)(=O)=O)csc12` [Compound 116, N-{(R)-1-[7-tert-Butyl-5-(2-oxo-1,2-dihydro-pyridin-3-yl)-benzo[b]thiophene-3-carbonyl]-pyrrolidin-2-ylmethyl}-methanesulfonamide] showed a melting point of 289 to 291 °C. Besides, in data set [1], the pIC50 was 8.40.
`CC(C)(C)c1cc(-c2ccc[nH]c2=O)cc2ccoc12` [Compound I-2, 3-(7-tert-Butyl-benzofuran-5-yl)-1H-pyridin-2-one] gave a melting point of 217 to 218 °C. The molecule also had a pIC50 in data set [1] of 6.69.
The corresponding values for `CC(C)(C)c1cc(-c2ccc[nH]c2=O)cc2c(CC#N)coc12` [Compound I-5, [7-tert-Butyl-5-(2-oxo-1,2-dihydro-pyridin-3-yl)-benzofuran-3-yl]-acetonitrile] are 231 to 232 °C and 6.48.
The molecule `CC(C)(C)c1cc(-c2ccc[nH]c2=O)cc2c(CC(=O)O)coc12` [Compound I-6, [7-tert-Butyl-5-(2-oxo-1,2-dihydro-pyridin-3-yl)-benzofuran-3-yl]-acetic acid] showed a melting point of 233 to 234 °C. Moreover, the pIC50 in data set [1] is 6.45.
For the molecule `CC(C)(C)c1cc(-c2ccc[nH]c2=O)cc2c(C(=O)c3ccccc3)coc12` [Compound I-20], the melting point is 271 to 272 °C. In data set [1], this molecule showed a pIC50 of 7.31.
The corresponding values for `CC(C)(C)c1cc(-c2ccc[nH]c2=O)cc2c(-c3ccccc3)coc12` [Compound I-24] are 257 to 258 °C and 7.72.
`COc1cccc(-c2coc3c(C(C)(C)C)cc(-c4ccc[nH]c4=O)cc23)c1` [Compound I-33]: the melting point was in the range of 204 to 205 °C. The same molecule showed a pIC50 in data set [1] of 7.85.
In turn, `CC(C)(C)c1cc(-c2ccc[nH]c2=O)cc2c(C(=O)c3cccc(O)c3)coc12` [Compound I-36, 3-[7-tert-Butyl-3-(3-hydroxy-benzoyl)-benzofuran-5-yl]-1H-pyridin-2-one] returned a melting point of 268 to 269 °C. This molecule gave a pIC50 in data set [1] of 7.42.
For the molecule `CC(C)(C)c1cc(-c2ccc[nH]c2=O)cc2c(-c3ccc(CNS(C)(=O)=O)cc3)coc12` [Compound I-37, N-{4-[7-tert-Butyl-5-(2-oxo-1,2-dihydro-pyridin-3-yl)-benzofuran-3-yl]-benzyl}1-methanesulfonamide], the melting point lay within 271 to 273 °C. In data set [1], the pIC50 was 8.40.
In the case of `CC(C)(C)c1cc(-c2ccc[nH]c2=O)cc2c(C(=O)N3CCC[C@H](N)C3)coc12` [Compound I-41], the melting point is 269 to 270 °C. In data set [1], the pIC50 is 6.90.
For the molecule `CC(C)(C)c1cc(-c2ccc[nH]c2=O)cc2c(C(=O)N3CCC[C@@H](N)C3)coc12` [Compound I-42], the melting point lay within 254.9 to 258.1 °C. The molecule also gave a pIC50 in data set [1] of 6.26.
In turn, `CC(C)(C)c1cc(-c2ccc[nH]c2=O)cc2c(C(=O)N3CCC(CN)C3)coc12` (stereo not shown) [Compound I-49] registered a melting point greater than 300 °C. For the same molecule, in data set [1], the pIC50 is 6.98.
With `CC(C)(C)c1cc(-c2ccc[nH]c2=O)cc2c(C(=O)N3CCCC(CN)C3)coc12` (stereo not shown) [Compound I-50], the melting point lay within 150 to 155 °C. In addition, the pIC50 in data set [1] was 7.29.
Regarding `CC(C)(C)c1cc(-c2ccc[nH]c2=O)cc2c(-c3cccc(CN)c3)coc12` [Compound I-62], the pIC50 in data set [1] was 6.05.
The same measure, in the same setting: as for `COC(=O)[C@@H]1C[C@@H](O)CN1C(=O)c1coc2c(C(C)(C)C)cc(-c3ccc[nH]c3=O)cc12` [Compound I-63], the figure is 5.79; as for `CC(C)(C)c1cc(-c2ccc[nH]c2=O)cc2c(C(=O)N3CCC(O)(C(N)=O)CC3)coc12` [Compound I-64], 7.01; as for `CC(C)(C)c1cc(-c2ccc[nH]c2=O)cc2c(C(=O)N3CCC(O)C3)coc12` (stereo not shown) [Compound I-65], 6.90.
Still for that read-out and setting: as for `CCNC1(C(N)=O)CCN(C(=O)c2coc3c(C(C)(C)C)cc(-c4ccc[nH]c4=O)cc23)CC1` [Compound I-66], the figure is 6.87; as for `CN(C)[C@@H]1CCN(C(=O)c2coc3c(C(C)(C)C)cc(-c4ccc[nH]c4=O)cc23)C1` [Compound I-67], 6.05.
On the same count and under the same terms, under `CC(C)(C)c1cc(-c2ccc[nH]c2=O)cc2c(C(=O)N3CCC(F)(F)CC3)coc12` [Compound I-68] stands 6.22; under `CC1(C)CCCN(C(=O)c2coc3c(C(C)(C)C)cc(-c4ccc[nH]c4=O)cc23)C1` [Compound I-69], 6.08; under `CC(C)(C)c1cc(-c2ccc[nH]c2=O)cc2c(C(=O)N3CCC(CO)C3)coc12` (stereo not shown) [Compound I-70], 7.28.
Turning to `CC(C)(C)c1cc(-c2ccc[nH]c2=O)cc2c(C(=O)N3CCSC3)coc12` [Compound I-71], in data set [1], the pIC50 was 7.30. The pIC50 values of the last two molecules are within 0.2 log units of each other.
As to `CC(C)(C)c1cc(-c2ccc[nH]c2=O)cc2c(C(=O)N3CC[C@H](CNS(C)(=O)=O)C3)coc12` [Compound I-72], the melting point is 258 to 260 °C. This molecule had a pIC50 in data set [1] of 8.10.
Turning to `CC(C)(C)c1cc(-c2ccc[nH]c2=O)cc2c(C(=O)N3CC[C@@H](CNS(C)(=O)=O)C3)coc12` [Compound I-73, N-{(R)-1-[7-tert-Butyl-5-(2-oxo-1,2-dihydro-pyridin-3-yl)-benzofuran-3-carbonyl]-pyrrolidin-3-ylmethyl}-methanesulfonamide], the pIC50 in data set [1] was 7.68.
Same read-out and setting: under `CC(C)(C)c1cc(-c2cc(F)c[nH]c2=O)cc2c(-c3ccc(CNS(C)(=O)=O)cc3)coc12` [Compound I-74] stands 7.43; under `CC(=O)NC[C@H]1CCN(C(=O)c2coc3c(C(C)(C)C)cc(-c4ccc[nH]c4=O)cc23)C1` [Compound I-75], 6.71.
The same measure, in the same setting: under `CC(C)(C)c1cc(-c2ccc[nH]c2=O)cc2c(C(=O)N3CCCC(CNS(C)(=O)=O)C3)coc12` (stereo not shown) [Compound I-90] stands 8.22.
The same measure, in the same setting: as for `CC(C)(C)c1cc(-c2ccc[nH]c2=O)cc2c(-c3ccc(CNS(C)(=O)=O)nc3)coc12` [Compound I-93, N-{5-[7-tert-Butyl-5-(2-oxo-1,2-dihydro-pyridin-3-yl)-benzofuran-3-yl]-pyridin-2-ylmethyl}-methanesulfonamide], the figure is 7.92; as for `CC(C)(C)c1cc(-c2ccc[nH]c2=O)cc2c(C(=O)N3CCC[C@@H](CNS(C)(=O)=O)C3)coc12` [Compound I-101], 8.05; as for `Cn1cc(C#N)c2cc(-c3ccc[nH]c3=O)cc(C(C)(C)C)c21` [Compound I-110], 6.50.
